In BindingDB's records for doi:10.1016/j.bmcl.2007.03.076 (Tanabe Research Laboratories Usa, 2007):

Target: T1, Oxysterols receptor LXR-beta (Homo sapiens, UniProt P55055)
T1 sequence (P55055 whole entry): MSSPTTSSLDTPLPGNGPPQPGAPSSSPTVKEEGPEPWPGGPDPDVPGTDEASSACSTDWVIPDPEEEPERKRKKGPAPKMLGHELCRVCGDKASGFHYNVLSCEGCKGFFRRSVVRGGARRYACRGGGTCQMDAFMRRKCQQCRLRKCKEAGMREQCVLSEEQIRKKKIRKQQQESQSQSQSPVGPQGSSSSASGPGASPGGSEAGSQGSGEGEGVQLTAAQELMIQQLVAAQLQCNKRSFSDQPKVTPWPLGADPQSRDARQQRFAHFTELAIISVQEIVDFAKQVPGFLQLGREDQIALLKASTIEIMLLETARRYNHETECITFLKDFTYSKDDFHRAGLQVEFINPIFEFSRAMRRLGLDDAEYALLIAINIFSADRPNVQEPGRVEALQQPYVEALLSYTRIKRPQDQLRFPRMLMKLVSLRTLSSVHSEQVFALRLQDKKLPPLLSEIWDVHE
Test: HTRF Cofactor Peptide Recruitment Assay
Conditions: pH 7.5; 22 °C
Experimental: Polyhistidine-tagged human LXR ligand-binding domain was mixed with the test compound, biotin-SRC1 peptide, streptavidin-allophycocyanin, and europium labeled anti-polyhistidine antibody in reaction buffer, and the mixture was incubated in a 384-well assay plate format. Time-resolved fluorescence was measured at 615 and 665 nm on a LJL Analyst plate reader. The ratio of 665/615 was used to calculate EC50 values of test compounds.

CC(C)(C)OC(=O)n1c(-c2ccc3c(c2)CC(NS(=O)(=O)c2ccccc2)C3)cc2ccccc21 (stereo unspecified) [tert-butyl 2-(2-benzenesulfonamido-2,3-dihydro-1H-inden-5-yl)-1H-indole-1-carboxylate]
EC50: 210 nM
